Reference: the supplement of paper PMC8149375

Legend:
Details in all cases: treatment: drug alone; 5 days
[1] = test system: UO-31; assay: minimum viability across doses, drug alone, relative to DMSO (fraction); higher = less growth inhibition
Description: (§1)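 Primary HTS: 8 RCC cell lines treated with 8 doses (up to 10 uM) of each library drug alone for 5 days; viability read by CellTiter-Glo and normalised to DMSO. GI50 was fitted with XLfit (4-parameter), AUC is the area under the dose-response curve, and minimum viability is the lowest fraction of DMSO viability across doses.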

[2] = test system: 769-P; assay: as above
Description: as §1

[3] = test system: 786-O; assay: as above
Description: as §1

[4] = test system: SN12C; assay: as above
Description: as §1

[5] = test system: ACHN; assay: as above
Description: as §1

[6] = test system: TK-10; assay: as above
Description: as §1

[7] = test system: CAKI-1; assay: as above
Description: as §1

[8] = test system: A498; assay: as above
Description: as §1

[9] = test system: UO-31; assay: AUC of dose-response viability curve, drug alone (arbitrary (AUC of normalised viability)); higher = less growth inhibition
Description: as §1

[10] = test system: 769-P; assay: as above
Description: as §1

[11] = test system: 786-O; assay: as above
Description: as §1

[12] = test system: SN12C; assay: as above
Description: as §1

[13] = test system: ACHN; assay: as above
Description: as §1

[14] = test system: TK-10; assay: as above
Description: as §1

[15] = test system: CAKI-1; assay: as above
Description: as §1

[16] = test system: A498; assay: as above
Description: as §1

[17] = test system: UO-31; assay: GI50, drug alone; higher = less potent
Description: as §1

[18] = test system: 769-P; assay: GI50, drug alone; higher = less potent
Description: as §1

[19] = test system: 786-O; assay: GI50, drug alone; higher = less potent
Description: as §1

[20] = test system: SN12C; assay: GI50, drug alone; higher = less potent
Description: as §1

[21] = test system: ACHN; assay: GI50, drug alone; higher = less potent
Description: as §1

[22] = test system: TK-10; assay: GI50, drug alone; higher = less potent
Description: as §1

[23] = test system: CAKI-1; assay: GI50, drug alone; higher = less potent
Description: as §1

[24] = test system: A498; assay: GI50, drug alone; higher = less potent
Description: as §1

Row | GI50, drug alone [19] [µM] | GI50, drug alone [21] [µM] | SMILES | minimum viability across doses [1] | minimum viability across doses [2] | minimum viability across doses [3] | minimum viability across doses [4] | minimum viability across doses [5] | minimum viability across doses [6] | minimum viability across doses [7] | minimum viability across doses [8] | AUC of dose-response viability curve [9] | AUC of dose-response viability curve [10] | AUC of dose-response viability curve [11] | AUC of dose-response viability curve [12] | AUC of dose-response viability curve [13] | AUC of dose-response viability curve [14] | AUC of dose-response viability curve [15] | AUC of dose-response viability curve [16] | GI50, drug alone [17] [µM] | GI50, drug alone [18] [µM] | GI50, drug alone [20] [µM] | GI50, drug alone [22] [µM] | GI50, drug alone [23] [µM] | GI50, drug alone [24] [µM]
1 | 0.00959 | 0.0415 | COc1ccc(-c2ccc3c(N4CCOC[C@@H]4C)nc(N4CCOC[C@@H]4C)nc3n2)cc1CO [AZD8055] | 0.00497 | 0.109 | 0.00631 | 0.163 | 0.0903 | 0.0959 | 0.0607 | 0.229 | 1.29 | 1.76 | 0.809 | 1.62 | 1.25 | 1.48 | 1.48 | 2.4 | 0.0691 | 0.171 | 0.11 | 0.0851 | 0.119 | 0.37
2 | 0.0573 | 0.14 | Cc1cc(C(=O)NOCCO)c(Nc2ccc(I)cc2F)n(C)c1=O [AZD8330] | 0.527 | 0.281 | 0.31 | 0.386 | 0.299 | 0.317 | 0.209 | 0.789 | 3.95 | 2.04 | 1.78 | 2.36 | 1.69 | 1.74 | 1.73 | 3.63 | > 10 | 0.385 | 0.865 | 0.123 | 0.134 | > 10
3 | > 10 | 0.609 | CNC(=O)CN1CCC(Oc2cc3c(Nc4cccc(Cl)c4F)ncnc3cc2OC)CC1 [AZD8931] | 0.785 | 0.336 | 0.474 | 0.696 | 0.323 | 0.333 | 0.576 | 0.994 | 3.56 | 2.32 | 2.67 | 3.06 | 2.08 | 2.35 | 2.86 | 4.39 | > 10 | 1.15 | > 10 | 1.21 | > 10 | > 10

Second part, the compound before the results:

Row | SMILES | GI50, drug alone [19] [µM] | GI50, drug alone [21] [µM] | minimum viability across doses [1] | minimum viability across doses [2] | minimum viability across doses [3] | minimum viability across doses [4] | minimum viability across doses [5] | minimum viability across doses [6] | minimum viability across doses [7] | minimum viability across doses [8] | AUC of dose-response viability curve [9] | AUC of dose-response viability curve [10] | AUC of dose-response viability curve [11] | AUC of dose-response viability curve [12] | AUC of dose-response viability curve [13] | AUC of dose-response viability curve [14] | AUC of dose-response viability curve [15] | AUC of dose-response viability curve [16] | GI50, drug alone [17] [µM] | GI50, drug alone [18] [µM] | GI50, drug alone [20] [µM] | GI50, drug alone [22] [µM] | GI50, drug alone [23] [µM] | GI50, drug alone [24] [µM]
4 | CN(C)C/C=C/C(=O)Nc1cc2c(Nc3ccc(F)c(Cl)c3)ncnc2cc1O[C@H]1CCOC1 [Afatinib (BIBW2992)] | 1.46 | 0.162 | 0.00799 | 0.0284 | 0.00665 | 0.0794 | 0.000546 | 0.0844 | 0.047 | 0.00814 | 3.72 | 1.94 | 2.26 | 2.37 | 1.71 | 1.73 | 2.18 | 2.87 | 2.61 | 0.298 | 1.34 | 0.157 | 0.673 | 2.86
5 | S=C(NCc1ccc2c(c1)OCO2)N1CCN(c2ncnc3c2oc2ccccc23)CC1 [Amuvatinib (MP-470)] | 0.686 | 2.63 | 0.0651 | 0.527 | 0.104 | 0.0586 | 0.113 | 0.28 | 0.832 | 0.103 | 3.73 | 3.25 | 2.22 | 2.63 | 2.87 | 2.82 | 3.74 | 3.63 | 2.68 | > 10 | 1.56 | 4.83 | > 10 | 3.14
6 | S=C(NCc1ccc2c(c1)OCO2)N1CCN(c2ncnc3c2oc2ccccc23)CC1 [Amuvatinib (MP-470)_R2] | 0.00825 | 2.42 | 0.0813 | 0.578 | 0.0372 | 0.0284 | 0.151 | 0.198 | 0.749 | 0.131 | 3.43 | 3.38 | 1.54 | 2.51 | 2.69 | 2.19 | 3.34 | 3.12 | 2.57 | > 10 | 1.56 | 2.27 | > 10 | 4.19
7 | CS(=O)(=O)O.N#CC1(c2ccc(NC(=O)c3cccnc3NCc3ccncc3)cc2)CCCC1 [Apatinib (YN968D1)] | > 10 | > 10 | 0.126 | 0.901 | 0.648 | 0.799 | 0.676 | 0.739 | 0.666 | 1.02 | 5.2 | 3.53 | 3.23 | 3.39 | 3.21 | 2.84 | 2.93 | 4.78 | 8.33 | > 10 | > 10 | > 10 | > 10 | > 10
8 | O=C1C(=O)N(Cc2ccc(Cl)c(Cl)c2)c2ccccc21 [Apoptosis Activator 2] | > 10 | 6.95 | 0.818 | 0.654 | 0.00355 | 0.193 | 0.339 | 0.439 | 0.342 | 0.506 | 4.31 | 3.51 | 1.07 | 2.93 | 2.87 | 2.82 | 3.53 | 4.06 | > 10 | > 10 | 4.98 | 8.15 | 7.68 | > 10
9 | CCN1CCN(C(=O)Cc2ccc(Nc3ncc(F)c(Nc4ccc(C(=O)Nc5ccccc5Cl)cc4)n3)cc2)CC1 [Aurora A Inhibitor I] | 0.234 | 0.557 | 0.327 | 0.0238 | 0.0582 | 0.465 | 0.062 | 0.481 | 0.00638 | 0.871 | 3.82 | 2.75 | 1.75 | 2.95 | 2.17 | 2.7 | 2.49 | 4.05 | 9.23 | 2.03 | 5.34 | 4.41 | 0.98 | > 10
